From ChEMBL document CHEMBL3217575, “Design, synthesis and molecular modelling of novel methyl[4-oxo-2-(aroylimino)-3-(substituted phenyl)thiazolidin-5-ylidene]acetates as potent and selective aldose reductase inhibitors” (Medchemcomm, 2012)

Experiments:
[1] = species: Bos taurus; assay: Inhibition of purified calf kidney ALR1 at 0.6 mM preincubated for 10 mins by UV spectrophotometry; type: tissue-based
[2] = Inhibition of purified calf eye lens ALR2 preincubated for 10 mins by UV spectrophotometry; type: tissue-based, Bos taurus, Lens of camera-type eye
[3] = species: Bos taurus; assay: Inhibition of purified calf eye lens ALR2 at 0.6 mM preincubated for 10 mins by UV spectrophotometry; type: tissue-based; settings: Lens of camera-type eye
[4] = Inhibition of purified calf kidney ALR1 preincubated for 10 mins by UV spectrophotometry; type: tissue-based, Bos taurus

Question: Which inhibition [1] does the source give for `COC(=O)/C=C1/S/C(=N\C(=O)c2ccccc2)N(c2cccc3ccccc23)C1=O` here?
Answer: 44.3%

Question: What about the IC50 [2] of the same compound?
Answer: 3.19 µM

Question: Which inhibition [1] does the source give for `COC(=O)/C=C1/S/C(=N\C(=O)c2ccccc2Br)N(c2cccc(Cl)c2Cl)C1=O` here?
Answer: 51.4%

Question: What about the IC50 [2] of the same compound?
Answer: 9.42 µM

Question: Which inhibition [1] does the source give for `COC(=O)/C=C1/S/C(=N\C(=O)c2cccc(C)c2)N(c2cccc(Cl)c2)C1=O` here?
Answer: 42.6%

Question: What about the IC50 [2] of the same compound?
Answer: 4.52 µM

Question: Which inhibition [3] does the source give for `COC(=O)/C=C1/S/C(=N\C(=O)c2ccccc2C)N(c2cccc(OC)c2)C1=O` here?
Answer: 43.8%

Question: And the inhibition [1]?
Answer: 27.8%

Question: What does the source list for `COC(=O)/C=C1/S/C(=N\C(=O)c2ccc3ccccc3c2)N(c2ccccc2)C1=O`?
Answer: inhibition [1]: 49.1%; IC50 [2]: 5.12 µM

Question: Which inhibition [1] does the source give for `COC(=O)/C=C1/S/C(=N\C(=O)c2cccc(C)c2)N(c2ccccc2)C1=O` here?
Answer: 31.5%

Question: What about the IC50 [2] of the same compound?
Answer: 9.75 µM

Question: Which inhibition [1] does the source give for `COC(=O)/C=C1/S/C(=N\C(=O)c2cccc(C)c2)N(c2ccccc2OC)C1=O` here?
Answer: 32.4%

Question: What about the IC50 [2] of the same compound?
Answer: 6.26 µM

Question: With `COC(=O)/C=C1/S/C(=N\C(=O)c2ccc([N+](=O)[O-])cc2)N(c2ccccc2F)C1=O` as the compound, how does the inhibition [1] read?
Answer: 49.5%

Question: What about the IC50 [2] of the same compound?
Answer: 36.1 µM

Question: Which inhibition [3] does the source give for `COC(=O)/C=C1/S/C(=N\C(=O)c2ccc([N+](=O)[O-])cc2)N(c2ccc(F)c(Cl)c2)C1=O` here?
Answer: 47.7%

Question: What about the inhibition [1] of the same compound?
Answer: 38.4%

Question: For `CCCC(CCC)C(=O)O` [VALPROIC ACID], which IC50 [4] is on record?
Answer: 57.4 µM

Question: With `COC(=O)/C=C1/S/C(=N\C(=O)c2ccccc2Cl)N(c2ccccc2)C1=O` as the compound, how does the inhibition [1] read?
Answer: 19.2%

Question: What about the IC50 [2] of the same compound?
Answer: 5.21 µM

Question: With `O=C1NC(=O)[C@@]2(CCOc3ccc(F)cc32)N1` [SORBINIL] as the compound, how does the IC50 [2] read?
Answer: 3.14 µM

Question: For `COC(=O)/C=C1/S/C(=N\C(=O)c2ccccc2Br)N(c2ccc(Cl)cc2Cl)C1=O`, which inhibition [1] is on record?
Answer: 72.7%

Question: What about the IC50 [2] of the same compound?
Answer: 2.54 µM

Question: With `COC(=O)/C=C1/S/C(=N\C(=O)c2ccc(C)cc2)N(c2cccc(Cl)c2)C1=O` as the compound, how does the inhibition [3] read?
Answer: 44.3%

Question: And the inhibition [1]?
Answer: 43.5%

Question: Which inhibition [1] does the source give for `COC(=O)/C=C1/S/C(=N\C(=O)c2ccccc2)N(c2ccccc2OC)C1=O` here?
Answer: 41.2%

Question: And the IC50 [2]?
Answer: 2.82 µM

Question: For `COC(=O)/C=C1/S/C(=N\C(=O)c2ccc(Cl)cc2)N(c2cccc(Cl)c2Cl)C1=O`, which inhibition [1] is on record?
Answer: 15.3%

Question: And the IC50 [2]?
Answer: 12.4 µM
